The values below come from US20220339144A1, “PYRIDINYL INDOLE COMPOUNDS AND METHODS OF USE THEREOF” (Chinook Therapeutics Canada, Inc., priority 2021, published 2022).

In data set [1] the test system is ZSF1 rat model of diabetic nephropathy. Conditions: cited from earlier work.
For data set [2], the system named is Pkd1 knockout mouse model of ADPKD. The settings on record: orthologous Pkd1 knockout mouse model of ADPKD; cited from earlier work.
For data set [3], the target named is T1, AMPKα1β2γ1 (Homo sapiens, UniProt O43741+Q13131).
T1 construct: purchased Carna Biosciences (printed only as 'Biosciences') 02-147
T1 sequence (Q13131 whole entry): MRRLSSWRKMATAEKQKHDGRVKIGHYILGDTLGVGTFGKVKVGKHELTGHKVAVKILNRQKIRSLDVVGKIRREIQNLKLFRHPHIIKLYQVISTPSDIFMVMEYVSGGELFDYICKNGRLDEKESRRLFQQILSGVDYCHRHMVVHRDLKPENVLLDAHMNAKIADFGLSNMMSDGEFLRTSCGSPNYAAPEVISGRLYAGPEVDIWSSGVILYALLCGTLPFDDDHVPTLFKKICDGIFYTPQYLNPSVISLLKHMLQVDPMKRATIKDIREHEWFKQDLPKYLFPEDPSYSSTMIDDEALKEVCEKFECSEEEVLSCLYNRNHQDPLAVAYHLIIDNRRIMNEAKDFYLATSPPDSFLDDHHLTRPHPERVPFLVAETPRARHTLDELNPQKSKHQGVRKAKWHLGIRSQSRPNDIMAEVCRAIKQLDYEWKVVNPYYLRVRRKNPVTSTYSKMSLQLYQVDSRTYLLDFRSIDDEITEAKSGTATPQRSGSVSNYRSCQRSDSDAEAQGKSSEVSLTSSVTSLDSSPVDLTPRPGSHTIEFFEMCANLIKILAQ
T1 sequence (O43741 whole entry): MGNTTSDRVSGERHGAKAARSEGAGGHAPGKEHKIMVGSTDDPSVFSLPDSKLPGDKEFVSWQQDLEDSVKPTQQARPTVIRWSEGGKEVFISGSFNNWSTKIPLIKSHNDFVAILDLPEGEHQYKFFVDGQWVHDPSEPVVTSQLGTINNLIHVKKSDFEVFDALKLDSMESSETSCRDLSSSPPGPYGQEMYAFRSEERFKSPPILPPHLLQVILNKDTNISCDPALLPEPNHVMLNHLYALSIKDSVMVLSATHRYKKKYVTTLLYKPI
T1 sequence (P54619 whole entry partner): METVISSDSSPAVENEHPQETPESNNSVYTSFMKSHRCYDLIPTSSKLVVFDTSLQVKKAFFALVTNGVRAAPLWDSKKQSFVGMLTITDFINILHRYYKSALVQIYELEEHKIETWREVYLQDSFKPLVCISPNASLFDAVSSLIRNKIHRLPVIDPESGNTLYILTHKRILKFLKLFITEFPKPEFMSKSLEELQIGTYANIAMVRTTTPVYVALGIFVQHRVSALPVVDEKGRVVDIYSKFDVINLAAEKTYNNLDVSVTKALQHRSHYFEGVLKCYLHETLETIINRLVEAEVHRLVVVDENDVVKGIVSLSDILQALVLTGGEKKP
The experiment in a line: AMPKα1β2γ1 biochemical assay (LabChip EZ Reader mobility shift). The settings on record: second EC50 column of Table 1 (head repeats α1β1γ1; text says α1β2γ1 isoform); read-out: Human AMPK AMPKα1β1γ1 EC50. The protocol: (§1) Compounds disclosed herein were evaluated for their ability to activate AMPKα1β1γ1 by measuring phosphorylation of a commercially available fluorescent AMPK substrate using the LabChip® EZ Reader microfluidic system that is based on a mobility shift principle in which unphosphorylated fluorescent substrates may be separated and distinguished from phosphorylated fluorescent substrates due to the difference in negative charge. Briefly, compounds were serial diluted 3-fold in 100% DMSO for an 11-point dose-response curve. A 20 nL aliquot of diluted compound was transferred into a 384-well plate using a liquid handler (Labcyte Inc., Echo 550). A pre-prepared solution (10 mM MgCl2, 0.01% Brij-35, 2 mM DTT, 0.05% BSA, 1 mM EGTA, and 50 mM HEPES pH 7.5) was combined with 0.83 nM AMPKα1β1γ1 (Carna Biosciences, 02-113). The enzyme solution (15 μL) was aliquoted into each well and the plate was incubated at 24° C. for 30 min. A second stock solution (10 mM MgCl2, 0.01% Brij-35, 2 mM DTT, 0.05% BSA, 1 mM EGTA, 800 μM ATP, and 50 mM HEPES pH 7.5) was combined with 6 μM fluorescent peptide substrate for AMPKal (Perkin Elmer, 760351). The kinase reaction was initiated by adding 5 μL of the second solution containing substrate and ATP to each well. The plate was incubated at 24° C. for 90 minutes and 75 μL of 0.5 M EDTA was added to terminate the reaction. The plates were analyzed using a LabChip® EZ Reader (Perkin Elmer, 122919) and the effective concentration to achieve 50% of the maximal activity (EC50) was calculated after normalizing to the DMSO vehicle control.
The same procedure above was also used to measure activation of the AMPKα1β2γ1 isoform, replacing AMPKα1β1γ1 with AMPKα1β2γ1 Biosciences 02-147).

For data set [4], the target named is T2, AMPKα1β1γ1 (Homo sapiens, UniProt Q13131+Q9Y478).
T2 construct: purchased Carna Biosciences 02-113
T2 sequence (Q13131 whole entry): as the sequence (Q13131 whole entry) above
T2 sequence (Q9Y478 whole entry): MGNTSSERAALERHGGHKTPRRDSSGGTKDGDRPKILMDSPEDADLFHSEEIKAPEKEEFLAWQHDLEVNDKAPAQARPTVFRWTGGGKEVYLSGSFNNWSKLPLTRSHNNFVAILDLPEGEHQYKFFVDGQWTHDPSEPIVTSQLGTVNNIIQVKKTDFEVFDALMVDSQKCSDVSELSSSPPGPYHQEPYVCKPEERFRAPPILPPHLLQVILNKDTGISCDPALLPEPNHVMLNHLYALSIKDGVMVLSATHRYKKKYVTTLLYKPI
T2 sequence (P54619 whole entry partner): as the sequence (P54619 whole entry partner) above
The experiment in a line: AMPKα1β1γ1 biochemical assay (LabChip EZ Reader mobility shift). Conditions: EC50 of Table 1; activation, normalized to DMSO vehicle control; read-out: Human AMPK AMPKα1β1γ1 EC50. Here is the method: as §1

For data set [5], the system named is miniature pig model of ADPKD. The settings on record: cited from earlier work.
For data set [6], the system named is high fat diet mice. Conditions: cited from earlier work.
The subject of data set [7] is orthologous mouse model of ADPKD. Conditions: cited from earlier work.
For data set [8], the system named is Wistar Han rats. The settings on record: 14 days of treatment in Wistar Han rats; cited from earlier work.
Setting [9] is: ZSF1 progressive rat model of diabetic nephropathy.

Regarding `O=C(O)c1c[nH]c2cc(Cl)c(-c3ccc(C4(O)CCC4)cc3)cc12` [PF-06409577], in data set [1] (ZSF1 rat model of diabetic nephropathy), the proteinuria entry was “reduced proteinuria”.
For the molecule `O=C(Oc1ccccc1C(=O)O)c1ccccc1O` [salsalate], the cystic disease severity entry in data set [2] is recorded as “attenuate cystic disease severity”.
In general, EC50 refers to the concentration at which the effect is half-maximal. In the case of `COC[C@@H]1[C@H]2CN(c3ccc(-c4cc5c(C(=O)O)c[nH]c5cc4Cl)c(OC)n3)C[C@@H]12` [Example 9, 6-chloro-5-(2-methoxy-6-((trans)-6-(methoxymethyl)-3-azabicyclo[3.1.0]hexan-3-yl)pyridin-3-yl)-1H-indole-3-carboxylic acid], the EC50 in data set [3] was greater than 10 µM; in data set [4], no more than 0.05 µM.
Regarding `COc1nc(N2CC3(CCNC3=O)C2)ccc1-c1cc2c(C(=O)O)c[nH]c2cc1Cl` [Example 18, 6-chloro-5-(2-methoxy-6-(5-oxo-2,6-diazaspiro[3.4]octan-2-yl)pyridin-3-yl)-1H-indole-3-carboxylic acid], the figures for the EC50 in data set [3] and in data set [4] were greater than 10 µM and no more than 0.05 µM, respectively.
On the same counts, the results for `COc1nc(N2C[C@@H]3[C@@H](O)[C@@H]3C2)ccc1-c1cc2c(C(=O)O)c[nH]c2cc1Cl` [Example 24, 6-chloro-5-(6-((trans)-6-hydroxy-3-azabicyclo[3.1.0]hexan-3-yl)-2-methoxypyridin-3-yl)-1H-indole-3-carboxylic acid] are 0.25 to 10 µM and no more than 0.05 µM.
Regarding `CN(C)C(=N)N=C(N)N` [Metformin], the cystic kidney disease result in data set [5] and in data set [7] was “attenuate cystic kidney disease” each time. The “high fat diet-induced metabolic derangement and renal injury” value in data set [6] is “reduce high fat diet-induced metabolic derangement and renal injury”.
On to MK-8722, for which, in data set [8], the cardiac glycogen levels result is “increased cardiac glycogen levels” and the cardiac hypertrophy result is on record as “significant cardiac hypertrophy”. Moreover, in data set [1] (setting [9]), the “proteinuria, glomerular filtration rate, and kidney fibrosis” value was “significant improvements”; the renal protection entry is listed as “renal protective”.
With `COc1nc(N2CC3(CCCO3)C2)ccc1-c1cc2c(C(=O)O)c[nH]c2cc1Cl` [Example 8, 6-chloro-5-(2-methoxy-6-(5-oxa-2-azaspiro[3.4]octan-2-yl)pyridin-3-yl)-1H-indole-3-carboxylic acid], the EC50 in data set [3] was greater than 10 µM; in data set [4], no more than 0.05 µM.
